One data set concerns the target T1, Retinal dehydrogenase 2 (Homo sapiens, UniProt O94788).
T1 sequence (O94788 whole entry): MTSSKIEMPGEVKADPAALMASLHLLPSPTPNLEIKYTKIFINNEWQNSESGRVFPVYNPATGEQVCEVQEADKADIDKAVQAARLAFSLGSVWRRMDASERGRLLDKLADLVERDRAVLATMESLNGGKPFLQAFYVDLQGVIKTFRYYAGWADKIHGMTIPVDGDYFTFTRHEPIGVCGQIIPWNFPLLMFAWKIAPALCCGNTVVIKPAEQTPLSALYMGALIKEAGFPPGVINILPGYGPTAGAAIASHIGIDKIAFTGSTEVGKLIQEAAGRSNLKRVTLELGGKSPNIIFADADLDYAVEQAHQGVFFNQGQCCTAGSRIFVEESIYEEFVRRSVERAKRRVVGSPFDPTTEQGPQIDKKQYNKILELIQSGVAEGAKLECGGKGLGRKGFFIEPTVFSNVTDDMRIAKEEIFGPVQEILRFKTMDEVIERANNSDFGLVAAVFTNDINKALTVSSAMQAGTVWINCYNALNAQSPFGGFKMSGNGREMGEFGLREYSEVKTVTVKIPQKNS
As to the kind of experiment: Inhibition of human ALDH1A2 assessed as NADH formation using propionaldehyde as substrate by spectrophotometry.

Data set [1] deals with T2, Aldehyde dehydrogenase 1A1 (Homo sapiens, UniProt P00352).
T2 sequence (P00352 whole entry): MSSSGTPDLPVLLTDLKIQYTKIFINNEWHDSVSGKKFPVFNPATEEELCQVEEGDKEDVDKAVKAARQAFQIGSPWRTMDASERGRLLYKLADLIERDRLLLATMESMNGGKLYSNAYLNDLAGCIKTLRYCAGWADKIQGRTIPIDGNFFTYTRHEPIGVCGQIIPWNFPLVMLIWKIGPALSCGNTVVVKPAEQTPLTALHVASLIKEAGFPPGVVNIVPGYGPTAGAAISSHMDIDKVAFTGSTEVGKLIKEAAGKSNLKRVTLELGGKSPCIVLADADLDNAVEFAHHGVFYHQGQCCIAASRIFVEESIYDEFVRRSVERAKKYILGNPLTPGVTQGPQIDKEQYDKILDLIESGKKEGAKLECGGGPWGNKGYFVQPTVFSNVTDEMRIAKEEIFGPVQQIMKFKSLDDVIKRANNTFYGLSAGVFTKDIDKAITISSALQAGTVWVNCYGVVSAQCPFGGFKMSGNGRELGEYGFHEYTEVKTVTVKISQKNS
As to the kind of experiment: Inhibition of human ALDH1A1 assessed as NADH formation using propionaldehyde as substrate by spectrophotometry.

Data set [2] deals with T3, Retinaldehyde dehydrogenase 3 (Homo sapiens, UniProt P47895).
T3 sequence (P47895 whole entry): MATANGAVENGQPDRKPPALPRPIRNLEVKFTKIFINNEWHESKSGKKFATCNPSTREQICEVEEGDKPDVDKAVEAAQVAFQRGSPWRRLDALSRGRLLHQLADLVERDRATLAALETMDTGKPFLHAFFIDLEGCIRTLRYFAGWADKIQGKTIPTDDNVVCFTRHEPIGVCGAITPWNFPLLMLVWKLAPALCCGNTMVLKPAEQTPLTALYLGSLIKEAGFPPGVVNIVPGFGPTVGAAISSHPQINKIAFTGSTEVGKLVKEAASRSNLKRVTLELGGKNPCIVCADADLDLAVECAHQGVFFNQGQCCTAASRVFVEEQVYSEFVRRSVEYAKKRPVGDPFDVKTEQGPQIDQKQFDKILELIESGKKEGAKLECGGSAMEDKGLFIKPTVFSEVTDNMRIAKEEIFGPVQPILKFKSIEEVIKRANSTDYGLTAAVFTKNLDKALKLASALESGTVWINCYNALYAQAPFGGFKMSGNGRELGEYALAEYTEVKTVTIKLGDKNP
As to the kind of experiment: Inhibition of human ALDH1A3 assessed as NADH formation using propionaldehyde as substrate by spectrophotometry.

In data set [3] the target is T4, Aldehyde dehydrogenase 1A1 (Homo sapiens) (UniProt P00352).
T4 sequence (whole entry): T2 sequence (P00352 whole entry)
The data set is described as follows: Inhibition of human ALDH1A1 assessed as NADH formation using propionaldehyde as substrate at 10 uM by spectrophotometry.

The target of data set [4] is T5, Aldehyde dehydrogenase, dimeric NADP-preferring (Homo sapiens, UniProt P30838).
T5 sequence (P30838 whole entry): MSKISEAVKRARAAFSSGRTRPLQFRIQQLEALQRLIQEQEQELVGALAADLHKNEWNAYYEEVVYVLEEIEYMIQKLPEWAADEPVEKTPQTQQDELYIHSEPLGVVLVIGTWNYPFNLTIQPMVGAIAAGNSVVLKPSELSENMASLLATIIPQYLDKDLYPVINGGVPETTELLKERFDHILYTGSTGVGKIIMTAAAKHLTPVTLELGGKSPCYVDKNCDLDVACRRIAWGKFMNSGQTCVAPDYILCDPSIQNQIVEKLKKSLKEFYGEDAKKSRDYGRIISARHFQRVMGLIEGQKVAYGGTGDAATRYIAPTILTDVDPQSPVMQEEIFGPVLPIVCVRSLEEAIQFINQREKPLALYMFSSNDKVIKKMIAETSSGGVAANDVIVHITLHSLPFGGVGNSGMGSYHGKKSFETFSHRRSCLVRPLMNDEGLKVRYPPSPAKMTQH
The data set is described as follows: Inhibition of human ALDH3A1 assessed as NADH formation using propionaldehyde as substrate by spectrophotometry.

Data set [5] addresses T6, Aldehyde dehydrogenase, mitochondrial (Homo sapiens, UniProt P05091).
T6 sequence (P05091 whole entry): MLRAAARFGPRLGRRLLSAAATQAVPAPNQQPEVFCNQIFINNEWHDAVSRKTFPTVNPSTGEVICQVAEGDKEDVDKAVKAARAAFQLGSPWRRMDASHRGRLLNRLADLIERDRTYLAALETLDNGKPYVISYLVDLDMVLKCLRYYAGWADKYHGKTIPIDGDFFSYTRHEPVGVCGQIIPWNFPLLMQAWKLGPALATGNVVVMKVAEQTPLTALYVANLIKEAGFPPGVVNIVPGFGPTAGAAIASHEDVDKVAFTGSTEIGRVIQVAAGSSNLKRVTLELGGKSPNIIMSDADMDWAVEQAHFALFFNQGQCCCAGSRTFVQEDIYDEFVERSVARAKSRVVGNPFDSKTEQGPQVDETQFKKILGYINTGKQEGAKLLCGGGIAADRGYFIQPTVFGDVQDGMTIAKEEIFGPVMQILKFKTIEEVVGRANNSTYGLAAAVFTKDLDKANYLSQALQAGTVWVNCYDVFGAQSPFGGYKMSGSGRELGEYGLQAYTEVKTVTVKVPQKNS
The data set is described as follows: Inhibition of human ALDH2 assessed as NADH formation using propionaldehyde as substrate by spectrophotometry.

Data set [6] is described as follows: Metabolic stability in human liver microsomes assessed as half life at 2 ug/ml measured up to 45 mins by LC-MS/MS analysis. Format: ADME, Microsome. The following applies: dose 2 µg/ml. In general terms: Liver microsomes are vesicles of endoplasmic reticulum, rich in cytochrome P450 enzymes.
Data set [7] can be described thus: Cytotoxicity against human HepG2 cells assessed as cell viability at 0.1 uM incubated for 24 hrs by MTT assay relative to control. The data set is classed as cell-based. The following applies: read-out: Activity. Background: Formazan colour is commonly taken as a measure of viable cells.
Data set [8] in a line: Cytotoxicity against human HepG2 cells assessed as cell viability at 1 uM incubated for 24 hrs by MTT assay relative to control. Format: cell-based. The following applies: read-out: Activity.
The nature of data set [9]: Cytotoxicity against human HepG2 cells assessed as cell viability at 10 uM incubated for 24 hrs by MTT assay relative to control. The data set is classed as cell-based. The following applies: read-out: Activity.
Data set [10] is described as follows: Metabolic stability in human liver microsomes assessed as intrinsic clearance at 2 ug/ml measured up to 45 mins by LC-MS/MS analysis. The following applies: dose 2 µg/ml, read-out: CLH. The data set is classed as ADME, Microsome.
The test system of data set [11] is HepG2. As to the kind of experiment: Cytotoxicity against human HepG2 cells assessed as morphological changes at 0.1 to 10 uM incubated for 24 hrs. The following applies: hepg2, 24 h, dose 0.1-10 µM. Format: cell-based.
In data set [12] the test system is HepG2. The data set is described as follows: Increase in glucose consumption in human HepG2 cells at 10 uM by glucose oxidase assay. Format: functional.
Data set [13] can be described thus: Metabolic stability in human liver microsomes assessed as first order elimination rate constant at 2 ug/ml measured up to 45 mins by LC-MS/MS analysis. The data set is classed as ADME, Microsome. The following applies: dose 2 µg/ml.

Molecules are shown by their SMILES.

By IC50 is commonly meant the concentration at which inhibition is half-maximal. In general, inhibition refers to the relative decrease from the control value, in per cent. The half-life is the time in which the quantity being followed falls by half.

As to `O=C(C1CC1)N1CCN(Cc2nc3ccccc3n2Cc2cccc(Cl)c2)CC1`, the concentration for half-maximal inhibition (IC50) at Retinal dehydrogenase 2 is 890 nM; in data set [1], 2110 nM; in data set [2], 1010 nM; in [4], 1450 nM; in data set [5] it was 2310 nM. Besides, the inhibition in data set [3] came to 71.6%.
As for `CC(C)=CCn1c(CN2CCN(C(=O)C3CC3)CC2)nc2ccccc21`, the IC50 at Retinal dehydrogenase 2 was determined as 1620 nM; in [1], 1500 nM; in [2], 1270 nM; in [4], 2150 nM; in [5], 1480 nM. In data set [3], the inhibition turned out to be 74.3%.
Regarding `O=C(C1CC1)N1CCN(Cc2nc3ccccc3n2Cc2ccccc2Cl)CC1`, in data set [6], the half-life at 2 ug/ml is 32 min. In addition, the viability at 24 h, 0.1 µM in data set [7] worked out at 93.8%. Besides, the IC50 was determined as 1970 nM at Retinal dehydrogenase 2; 1020 nM in data set [1]; 2410 nM in [2]; 1900 nM in [4]; 3160 nM in data set [5]. Further, the viability at 24 h, 1 µM in [8] came to 91.9%. Also, the viability at 24 h, 10 µM in data set [9] came to 85.7%. The inhibition in data set [3] was 78.3%. Further, the microsomal CLint at 2 ug/ml in [10] was found to be 88 µL/min/mg. The Activity result in the data set on HepG2 [11] is recorded as “Non-Toxic”; in the data set on HepG2 [12], 28%. Also, the k el at 0.75 h, 2 ug/ml in data set [13] was 0.000367 s⁻¹.
With `Cc1cccc(Cn2c(CN3CCN(C(=O)C(C)C)CC3)nc3ccccc32)c1`, the viability at 24 h, 0.1 µM in data set [7] came to 98.4%. For the same compound, the IC50 amounted to 2780 nM at Retinal dehydrogenase 2, 458 nM in [1], 2880 nM in [2] and 2270 nM in data set [5]. In data set [8], the viability at 24 h, 1 µM stood at 93.7%. The viability at 24 h, 10 µM in data set [9] came out at 85.7%. In data set [3], the inhibition came out at 87.2%. Also, the Activity entry in the data set with HepG2 [11] was “Non-Toxic”; with HepG2 [12], 20%.
`Cc1cccc(Cn2c(CN3CCN(C(=O)C4CC4)CC3)nc3ccccc32)c1`: the half-life at 2 ug/ml in data set [6] turned out to be 35 min. Also, the viability at 24 h, 0.1 µM in data set [7] was found to be 93.4%. In addition, the IC50 at Retinal dehydrogenase 2 turned out to be 1580 nM; in data set [1], 243 nM; in [2], 2120 nM; in data set [5], 790 nM. The viability at 24 h, 1 µM in [8] turned out to be 91.3%. Moreover, in data set [9], the viability at 24 h, 10 µM came to 90%. Moreover, the inhibition in data set [3] worked out at 89.1%. The microsomal CLint at 2 ug/ml in data set [10] came to 80 µL/min/mg. Besides, the Activity result was “Non-Toxic” with HepG2 [11] and 25% in the data set with HepG2 [12]. In addition, the k el at 0.75 h, 2 ug/ml in data set [13] was 0.000333 s⁻¹.
Take `O=C(C1CC1)N1CCN(Cc2nc3ccccc3n2Cc2cccc(C(F)(F)F)c2)CC1`: the half-life at 2 ug/ml in [6] stood at 27 min. The viability at 24 h, 0.1 µM in data set [7] was determined as 95.9%. Further, the IC50 at Retinal dehydrogenase 2 was found to be 1370 nM; in data set [1], 921 nM; in data set [2], 590 nM; in data set [5] it was 2170 nM. The viability at 24 h, 1 µM in data set [8] was 91.8%. For the same compound, the viability at 24 h, 10 µM in data set [9] was 90%. For the same compound, the inhibition in [3] came out at 82.1%. In addition, in data set [10], the microsomal CLint at 2 ug/ml was 104 µL/min/mg. The Activity entry with HepG2 [11] is reported as “Non-Toxic”; in the data set with HepG2 [12] it was 30%. Moreover, the k el at 0.75 h, 2 ug/ml in data set [13] was 0.000433 s⁻¹.

The record behind these values is ChEMBL document CHEMBL4823307, “Discovery of benzimidazole derivatives as potent and selective aldehyde dehydrogenase 1A1 (ALDH1A1) inhibitors with glucose consumption improving activity” (Bioorg Med Chem, 2021).
